Laboratory results: EP0211183A2, “Use of ubidecarenone(ubiquinone-10) as an antichromatotic agent” (Eisai Co., Ltd., priority 1985, dated 1987)
Where two headings read alike, the source gives them in different places.

Columns and labels:
guinea pigs = test: Sensitization, maximization test by Magnusson and Kligman; format: in vivo; conditions: challenge on day 21, sealed 24 hours
Experimental: This was tested in accordance with a maximization test by Magnusson B. and Kligman, A.M. The test is as follows:
Twenty guinea pigs were prepared for the test, ten being for the induction and the other ten being for the control in the challenge. The suprascapular part of the guinea pig was clipped and shaved in the area of 4cm x 6cm, and the following three pairs of hypodermic injections (a), (b) and (c) were imparted simultaneously to both the right and left parts as being symmetrical about the median line. • (a) Each 0.05ml of FCA to two points in both the right and left parts, totalling O.lml in all. • (b) Each 0.05ml of the test substance to two points in both the right and left parts, in the form of an aqueous solution (content of test substance: 10X). • (c) Each 0.05ml of FCA as containing the test substance emulsion to two points in both the right and left parts.
After one week from the hypodermic injection, the suprascapular part was again clipped and vaseline containing 10X of sodium laurylsulfate was applied thereover thereby to cause a slight inflammation on the applied part. By this treatment, the sensitization was intensified. Next, the test substance was applied to this part, which was thereafter airtightly sealed. […]

ICR-JCL mice = test: Acute toxicity, various dosage pathways, 7-day lethality, LD50 by Litchfield-Wilcoxon; format: in vivo; conditions: mice
Experimental: (§1) The acute toxicity of the present substance was investigated in various dosage pathways by the use of Wister rats and ICR-JCL mice. For the peroral or endermic dosage, the present substance was dissolved in a distilled water and the resulting solution was used. For the other dosages, the present substance was dissolved in a physiological salt solution and the resulting solution was dosed with a stomach conductor or an injector. In each dosage, a determined amount of the substance was regulated and properly dosed.
(§2) After the dosage, the expression of toxicopathy was continuously observed, and the lethality with the lapse of time for 7 days was measured and the value of LDSO was obtained therefrom. Both the tested animals as living and the tested animals as died were dissected for observation. LD50 was calculated on the basis of Litchfield-Wilcoxon figure-calculation method.

[1] = as above; format: in vivo, ICR-JCL mice; conditions: in vivo, read-out: LD50 value (95% confidence limit)
Experimental: as §1, §2

Wister rats = test: as above; format: in vivo; conditions: rats
Experimental: as §1, §2

[2] = at the dosages of Table-1, 7 days

COC1=C(OC)C(=O)C(CC=C(C)CCC=C(C)CCC=C(C)CCC=C(C)CCC=C(C)CCC=C(C)CCC=C(C)CCC=C(C)CCC=C(C)CCC=C(C)C)=C(C)C1=O [ubiquinone-10]
sensitization reaction (guinea pigs): No sensitization reaction
general condition, weight, amount of feed intake, observation in dissection (ICR-JCL mice; at the dosages of Table-1): no abnormal change was found
lethality (ICR-JCL mice; [2]): no animals as tested died
LD50 at 168 h ([1]; mouse, im, mice (male, female), Intramuscular): 500 mg/kg
LD50 at 168 h ([1]; mouse, ip, mice (male, female), Intra-abdominal): 1500 mg/kg
LD50 at 168 h ([1]; mouse, po, mice (male, female), Peroral): 4000 mg/kg
LD50 at 168 h ([1]; mouse, sc, mice (male, female), Hypodermic): 500 mg/kg
LD50 at 168 h ([1]; mouse, mice (male, female), Endermic): 4000 mg/kg
LD50 at 168 h ([1]; mouse, mice (male, female), Intravenous): 250 mg/kg
LD50 at 168 h ([1]; rat, im, rats (male, female), Intramuscular): 500 mg/kg
LD50 at 168 h ([1]; rat, ip, rats (male, female), Intra-abdominal): 1500 mg/kg
LD50 at 168 h ([1]; rat, po, rats (male, female), Peroral): 4000 mg/kg
LD50 at 168 h ([1]; rat, sc, rats (male, female), Hypodermic): 500 mg/kg
LD50 at 168 h ([1]; rat, rats (male, female), Endermic): 4000 mg/kg
LD50 at 168 h ([1]; rat, rats (male, female), Intravenous): 250 mg/kg
general condition, weight, amount of feed intake, observation in dissection (Wister rats; at the dosages of Table-1): no abnormal change was found
lethality (Wister rats; [2]): no animals as tested died
